Measured values reported in ChEMBL document CHEMBL1932960, “Discovery and characterization of a potent and selective antagonist of melanin-concentrating hormone receptor 2” (Bioorg Med Chem Lett, 2012).
One block for each compound: values may come before it. Active and inactive are the calls of the source. The rule behind the calls is not given here.

Legend:
[1] = target: T1, Melanin-concentrating hormone receptor 2 (Homo sapiens, UniProt Q969V1); assay: Antagonist activity at human MCHR2 receptor expressed in CHO cells assessed as inhibition of MCH-stimulated Ca2+ flux preincubated for 10 mins prior to MCH-stimulation by FLIPR assay; assay type: functional, cell-based
[2] = Mean residence time in rat at 0.5 mg/kg, iv; assay type: ADME, organism-based; set-up: dose 0.5 mg/kg, route intravenous; conditions: in vivo
[3] = Oral bioavailability in rat at 2 mg/kg; assay type: ADME, organism-based; conditions: in vivo
[4] = Clearance in rat at 0.5 mg/kg, iv; assay type: ADME, organism-based; set-up: dose 0.5 mg/kg, route intravenous; conditions: in vivo
D(2) dopamine receptor = D(2) dopamine receptor (Homo sapiens, UniProt P14416); assay: Inhibition of dopamine D2 receptor
[5] = target: Sodium-dependent serotonin transporter (Homo sapiens, UniProt P31645); assay: Inhibition of serotonin transporter
[6] = target: T2, Melanin-concentrating hormone receptor 1 (Homo sapiens, UniProt Q99705); assay: Antagonist activity at MCHR1 up to 50 uM by FLIPR assay; assay type: functional
Homo sapiens [7] = organism: Homo sapiens; assay: Selectivity ratio of IC50 for serotonin transporter to IC50 for human MCHR2 receptor
[8] = Oral bioavailability in Beagle dog at 2 mg/kg; assay type: ADME, organism-based, Canis lupus familiaris; conditions: in vivo
[9] = target: Voltage-gated inwardly rectifying potassium channel KCNH2 (Homo sapiens, UniProt Q12809); assay: Inhibition of human ERG by rubidium [86Rb] efflux assay
[10] = Clearance in rhesus monkey; assay type: ADME, organism-based, Macaca mulatta; conditions: in vivo
[11] = Mean residence time in rhesus monkey; assay type: ADME, organism-based, Macaca mulatta; conditions: in vivo
Homo sapiens [12] = organism: Homo sapiens; assay: Selectivity ratio of IC50 for dopamine D2 receptor to IC50 for human MCHR2 receptor
[13] = Mean residence time in Beagle dog; assay type: ADME, organism-based, Canis lupus familiaris; conditions: in vivo
[14] = Clearance in Beagle dog; assay type: ADME, organism-based, Canis lupus familiaris; conditions: in vivo
[15] = Oral bioavailability in rhesus monkey at 2 mg/kg; assay type: ADME, organism-based, Macaca mulatta; conditions: in vivo
[16] = target: T2, Melanin-concentrating hormone receptor 1; assay: Binding affinity to MCHR1 up to 10 uM
[17] = target: T1, Melanin-concentrating hormone receptor 2; assay: Displacement of [3H]N-(1'-((9-ethyl-9H-carbazol-3-yl)methyl)-2,3-dihydrospiro[indene-1,4'-piperidine]-3-yl)acetamide from human MCHR2 expressed in HEK293 cells after 2 hrs; assay type: cell-based
[18] = target: T2, Melanin-concentrating hormone receptor 1; assay: Antagonist activity at MCHR1 by FLIPR assay; assay type: functional

T1 sequence (Q969V1 whole entry): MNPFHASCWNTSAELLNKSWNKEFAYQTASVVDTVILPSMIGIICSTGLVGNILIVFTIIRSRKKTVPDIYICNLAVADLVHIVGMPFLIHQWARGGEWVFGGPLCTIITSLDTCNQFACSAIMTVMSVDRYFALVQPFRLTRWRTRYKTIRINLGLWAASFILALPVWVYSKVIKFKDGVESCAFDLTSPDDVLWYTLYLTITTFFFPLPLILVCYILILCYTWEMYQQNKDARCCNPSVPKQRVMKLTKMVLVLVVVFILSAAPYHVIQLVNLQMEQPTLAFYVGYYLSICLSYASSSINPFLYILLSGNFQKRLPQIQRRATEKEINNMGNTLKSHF
T2 sequence (Q99705 whole entry): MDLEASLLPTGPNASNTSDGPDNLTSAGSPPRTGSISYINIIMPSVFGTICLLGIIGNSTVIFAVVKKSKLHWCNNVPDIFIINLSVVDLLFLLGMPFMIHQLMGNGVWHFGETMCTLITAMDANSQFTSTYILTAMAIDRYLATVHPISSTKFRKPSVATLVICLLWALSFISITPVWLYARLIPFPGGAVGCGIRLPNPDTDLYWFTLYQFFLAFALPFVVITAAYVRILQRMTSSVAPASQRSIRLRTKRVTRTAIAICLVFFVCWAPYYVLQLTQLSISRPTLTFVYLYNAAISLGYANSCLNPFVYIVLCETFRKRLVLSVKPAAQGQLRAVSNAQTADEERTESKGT
Chain of Sodium-dependent serotonin transporter (P31645 whole entry): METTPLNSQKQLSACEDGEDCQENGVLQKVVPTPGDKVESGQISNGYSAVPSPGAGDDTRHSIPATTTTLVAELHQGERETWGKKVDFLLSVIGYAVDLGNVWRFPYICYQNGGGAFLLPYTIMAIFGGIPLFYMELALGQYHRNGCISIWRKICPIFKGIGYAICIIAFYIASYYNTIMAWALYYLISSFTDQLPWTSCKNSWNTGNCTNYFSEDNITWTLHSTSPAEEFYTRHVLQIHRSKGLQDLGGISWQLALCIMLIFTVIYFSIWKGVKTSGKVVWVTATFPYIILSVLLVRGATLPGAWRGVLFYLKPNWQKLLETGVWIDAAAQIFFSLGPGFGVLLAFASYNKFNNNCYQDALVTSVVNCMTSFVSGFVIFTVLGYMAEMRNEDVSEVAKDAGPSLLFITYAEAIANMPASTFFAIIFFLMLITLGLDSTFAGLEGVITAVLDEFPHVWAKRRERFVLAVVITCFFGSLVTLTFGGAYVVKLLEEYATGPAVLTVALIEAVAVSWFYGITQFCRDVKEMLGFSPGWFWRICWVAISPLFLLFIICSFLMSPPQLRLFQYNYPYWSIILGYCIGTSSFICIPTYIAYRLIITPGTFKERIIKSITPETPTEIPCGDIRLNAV
Chain of D(2) dopamine receptor (P14416 whole entry): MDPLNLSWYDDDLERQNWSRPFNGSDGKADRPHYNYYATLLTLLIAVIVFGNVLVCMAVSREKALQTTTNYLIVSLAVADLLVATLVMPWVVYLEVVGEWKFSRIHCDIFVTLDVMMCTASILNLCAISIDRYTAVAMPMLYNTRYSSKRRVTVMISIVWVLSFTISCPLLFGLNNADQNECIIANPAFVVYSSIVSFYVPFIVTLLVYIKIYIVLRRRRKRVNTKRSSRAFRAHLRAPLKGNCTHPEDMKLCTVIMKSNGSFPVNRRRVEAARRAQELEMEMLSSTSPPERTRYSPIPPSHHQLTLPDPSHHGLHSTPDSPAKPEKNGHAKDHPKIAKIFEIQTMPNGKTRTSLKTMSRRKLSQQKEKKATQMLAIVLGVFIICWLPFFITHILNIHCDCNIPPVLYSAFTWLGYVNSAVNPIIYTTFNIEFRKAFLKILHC
Chain of Voltage-gated inwardly rectifying potassium channel KCNH2 (Q12809 whole entry): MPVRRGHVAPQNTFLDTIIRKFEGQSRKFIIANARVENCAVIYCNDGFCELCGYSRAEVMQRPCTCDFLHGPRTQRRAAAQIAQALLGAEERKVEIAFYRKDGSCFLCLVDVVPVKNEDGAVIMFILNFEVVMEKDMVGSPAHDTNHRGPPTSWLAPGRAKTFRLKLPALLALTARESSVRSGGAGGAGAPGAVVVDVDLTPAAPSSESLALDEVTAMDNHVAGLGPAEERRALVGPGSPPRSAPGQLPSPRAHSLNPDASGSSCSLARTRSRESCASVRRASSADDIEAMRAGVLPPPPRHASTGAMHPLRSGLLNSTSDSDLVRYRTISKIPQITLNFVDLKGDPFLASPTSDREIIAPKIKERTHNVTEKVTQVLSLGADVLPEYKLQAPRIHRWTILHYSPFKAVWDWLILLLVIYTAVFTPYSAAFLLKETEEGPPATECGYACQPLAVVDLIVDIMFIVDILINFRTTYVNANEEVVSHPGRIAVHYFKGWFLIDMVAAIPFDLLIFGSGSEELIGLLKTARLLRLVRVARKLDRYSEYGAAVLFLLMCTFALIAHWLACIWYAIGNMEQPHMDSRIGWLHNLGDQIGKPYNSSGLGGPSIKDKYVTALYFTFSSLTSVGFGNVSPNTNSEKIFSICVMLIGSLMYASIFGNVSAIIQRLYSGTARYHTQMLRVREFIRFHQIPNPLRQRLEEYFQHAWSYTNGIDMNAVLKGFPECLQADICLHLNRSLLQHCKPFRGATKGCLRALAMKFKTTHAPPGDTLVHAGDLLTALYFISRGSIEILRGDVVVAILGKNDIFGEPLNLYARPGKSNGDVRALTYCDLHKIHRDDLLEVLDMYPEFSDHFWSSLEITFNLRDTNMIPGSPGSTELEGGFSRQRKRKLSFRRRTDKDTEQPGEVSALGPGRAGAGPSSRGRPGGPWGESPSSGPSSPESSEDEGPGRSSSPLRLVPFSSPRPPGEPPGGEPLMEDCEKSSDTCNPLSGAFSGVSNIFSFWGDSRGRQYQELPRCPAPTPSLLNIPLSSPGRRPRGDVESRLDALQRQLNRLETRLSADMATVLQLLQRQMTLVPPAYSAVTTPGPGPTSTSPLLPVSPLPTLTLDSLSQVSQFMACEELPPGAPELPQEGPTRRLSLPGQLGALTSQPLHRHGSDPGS

IC50 [1]: 70 nM
Compound: CC(=O)n1c2ccccc2c2cc(CN3CCC4(C=Cc5ccccc54)CC3)ccc21

Compound: O[C@H]1Cc2ccccc2C12CCN(Cc1ccc3[nH]c4ccccc4c3c1)CC2
IC50 [1]: 80 nM

Compound: NC(=O)n1c2ccccc2c2cc(CN3CCC4(C=Cc5ccccc54)CC3)ccc21
IC50 [1]: 4 nM

IC50 [1]: 0.1 nM
Compound: CCn1c2ccccc2c2cc(CN3CCC4(CC3)CC(NC(C)=O)c3ccccc34)ccc21 (racemic)

IC50 [1]: 60000 nM
Compound: CCn1c2ccccc2c2cc(C(=O)N3CCC4(C=Cc5ccccc54)CC3)ccc21

MRT [2]: 18.2 h | bioavailability [3]: 7.5% | IC50 [1]: 0.1 nM | clearance [4]: 20 mL/min/kg
Compound: CC(=O)N[C@@H]1CC2(CCN(Cc3ccc4[nH]c5ccccc5c4c3)CC2)c2ccccc21

IC50 [1]: 200 nM
Compound: CCn1c2ccccc2c2cc(CN3CCC4(CC3)CC(O)c3ccccc34)ccc21 (racemic)

IC50 [1]: 250 nM
Compound: CCn1c2ccccc2c2cc(CN3CCC4(CC3)c3ccccc3CC4NC(C)=O)ccc21 (racemic)

IC50 [1]: 250 nM
Compound: CCn1c2ccccc2c2cc(CN3CCC4(CC3)c3ccccc3[C@H](O)[C@@H]4O)ccc21 (racemic)

Compound: CC(=O)N[C@@H]1CC2(CCN(Cc3ccc4[nH]c5ccc(C(F)(F)F)cc5c4c3)CC2)c2ccccc21
IC50 [1]: 678 nM

Compound: CS(=O)(=O)n1c2ccccc2c2cc(CN3CCC4(C=Cc5ccccc54)CC3)ccc21
IC50 [1]: 200 nM

MRT [2]: 9.2 h | bioavailability [3]: 49% | IC50 (D(2) dopamine receptor): 500 nM | IC50 [5]: 100 nM | IC50 [1]: 1 nM | clearance [4]: 13.3 mL/min/kg
Compound: CC(=O)N[C@@H]1CC2(CCN(Cc3ccc4[nH]c5ccc(Cl)cc5c4c3)CC2)c2ccccc21

IC50 [1]: 13 nM
Compound: CC(=O)N[C@H]1CC2(CCN(Cc3ccc4[nH]c5ccccc5c4c3)CC2)c2ccccc21

IC50 [1]: 15000 nM
Compound: CCn1c2ccccc2c2cc(CCCN3CCC4(C=Cc5ccccc54)CC3)ccc21

Compound: CC(=O)N[C@@H]1CC2(CCN(Cc3ccc4c(c3)c3ccccc3n4C(N)=O)CC2)c2ccccc21
Activity [6]: inactive | MRT [2]: 18 h | Ratio IC50 (Homo sapiens [7]): > 500 | bioavailability [8]: 73% | IC50 [9]: 2000 nM | clearance [10]: 10 mL/min/kg | bioavailability [3]: 37% | MRT [11]: 6.1 h | Ratio IC50 (Homo sapiens [12]): > 500 | IC50 (D(2) dopamine receptor): 1500 nM | MRT [13]: 11 h | clearance [14]: 10 mL/min/kg | IC50 [5]: 10000 nM | bioavailability [15]: 47% | IC50 [1]: 1 nM | clearance [4]: 16.7 mL/min/kg | Activity [16]: inactive | Ki [17]: 13 nM

IC50 [1]: 60000 nM
Compound: CCn1c2ccccc2c2cc(NC(=O)N3CCC4(C=Cc5ccccc54)CC3)ccc21

Compound: CCC(=O)n1c2ccccc2c2cc(CN3CCC4(C=Cc5ccccc54)CC3)ccc21
IC50 [1]: 100 nM

Compound: C1=CC2(CCN(Cc3ccc4[nH]c5ccccc5c4c3)CC2)c2ccccc21
IC50 [1]: 100 nM

Compound: CN(C)C(=O)n1c2ccccc2c2cc(CN3CCC4(C=Cc5ccccc54)CC3)ccc21
IC50 [1]: 4 nM

IC50 [18]: 20000 nM | IC50 [1]: 1000 nM
Compound: CCn1c2ccccc2c2cc(CN3CCC4(C=Cc5ccccc54)CC3)ccc21

IC50 [1]: 30 nM
Compound: CCn1c2ccccc2c2cc(CN3CCC4(CC3)c3ccccc3CC4O)ccc21 (racemic)

IC50 [1]: 8 nM
Compound: CC(=O)N[C@H]1c2ccccc2C2(CCN(Cc3ccc4[nH]c5ccccc5c4c3)CC2)[C@@H]1O (racemic)

Compound: O[C@@H]1Cc2ccccc2C12CCN(Cc1ccc3[nH]c4ccccc4c3c1)CC2
MRT [2]: 2.8 h | bioavailability [3]: 5.9% | IC50 [1]: 10 nM | clearance [4]: 145 mL/min/kg

Compound: CCn1c2ccccc2c2cc(CCN3CCC4(C=Cc5ccccc54)CC3)ccc21
IC50 [1]: 10000 nM

Compound: COC(=O)n1c2ccccc2c2cc(CN3CCC4(C=Cc5ccccc54)CC3)ccc21
IC50 [1]: 300 nM

Compound: CC(=O)N[C@@H]1CC2(CCN(Cc3ccc4[nH]c5ccc(Br)cc5c4c3)CC2)c2ccccc21
IC50 [1]: 10 nM

Compound: CC(=O)N[C@@H]1CC2(CCN(Cc3ccc4[nH]c5ccc(F)cc5c4c3)CC2)c2ccccc21
IC50 [1]: 10 nM

MRT [2]: 14.2 h | bioavailability [3]: 9% | IC50 [1]: 100 nM | clearance [4]: 36.7 mL/min/kg
Compound: CCn1c2ccccc2c2cc(CN3CCC4(CC3)c3ccccc3[C@H](NC(C)=O)[C@H]4O)ccc21 (racemic)

IC50 [1]: 150 nM
Compound: CCn1c2ccccc2c2cc(CN3CCC4(CC3)c3ccccc3[C@H](O)[C@H]4O)ccc21 (racemic)
